In patent US20060128763A1 (priority 2003, published 2006):

Columns and labels:
[1] = DSC scan, FIGS. 3 and 4
[2] = physchem; details: water, thermodynamic from solid
Experimental: The measurement was performed according to the procedure described in the Korean Pharmacopoeia (Korean Ministry of Health and Welfare, General principle of medical supplies, Vol. 1, Clause 29, the 7th revision) which comprises the steps of dissolving each compound in distilled water to saturation, analyzing the saturated solution with liquid chromatography, and measuring the dissolved amount of each compound based on the amount of amlodipine.

thermodynamic stability (DSC absorption peak temperature compared with the crystalline form) [1] | solubility [2] [µg/mL] | SMILES
sufficient thermodynamic stability |  | CC1(C)[C@@H]2CC[C@@]1(CS(=O)(=O)O)C(=O)C2.CCOC(=O)C1=C(COCCN)NC(C)=C(C(=O)OC)C1c1ccccc1Cl (centres unmarked) [Amorphous amlodipine camsylate, amorphous amlodipine camsylate]
 | 2350 | CCOC(=O)C1=C(COCCN)NC(C)=C(C(=O)OC)C1c1ccccc1Cl (centres unmarked) [Crystalline amlodipine besylate, amlodipine benzenesulfonate]
